Measurements as given in paper PMC5471438, “Linaclotide activates guanylate cyclase‐C/cGMP/protein kinase‐II‐dependent trafficking of CFTR in the intestine” (Physiological Reports, 2017).
Entries after “also recorded” stand apart in the source; their conditions may differ. Where no end group is shown, it is not given here.

What was measured:
CFTR [1] = assay: Surface biotinylation of CFTR in cGKII knockdown C2BBe cells; format: cell-based, human; details: dibutyryl cAMP 1 mmol/L, 30 min, vs PBS
T84 cells = details: ref Forte et al. 1993; cited from earlier work
mouse colonic mucosa = details: apical and basolateral membrane, ref Silos‐Santiago et al. 2013, Tchernychev et al. 2015; cited from earlier work
From the text: (§1) While the increase in intracellular cGMP following ligand activation of GC‐C is well established, the efflux of cGMP from enterocytes is not well studied.

rat colonic mucosa = details: apical and basolateral membrane, ref Silos‐Santiago et al. 2013, Tchernychev et al. 2015; cited from earlier work
From the text: as §1

Caco‐2 cell line = details: human colonic Caco‐2 cell line; ref Castro et al. 2013; Silos‐Santiago et al. 2013; cited from earlier work
From the text: as §1

human colonic mucosa = assay: Transepithelial short circuit current (Isc) across human ascending colonic mucosa, Ussing chamber; details: human ascending colon, bumetanide 100 μmol/L basolateral, linaclotide 30 nmol/L and 1000 nmol/L; mean ± SEM (n = 6)
[2] = tested on: rat proximal colonic mucosa; design: method as in 2 sources, one per row (each row's own in cited_ref): ref Tchernychev et al. 2015 ||| ref Vaandrager et al. 1997; details: rat proximal colon; ref Vaandrager et al. 1997; cited from earlier work
[3] = tested on: rat proximal colonic mucosa; assay: Transepithelial short circuit current (Isc) across rat proximal colonic mucosa, Ussing chamber; design: species or system rat (Sprague–Dawley)
CFTR [4] = assay: Surface biotinylation of CFTR in C2BBe cells; format: cell-based, human; details: linaclotide 3.27 μmol/L 30 min
CFTR [5] = assay: Surface biotinylation of CFTR in T84 cells; format: cell-based, human; details: linaclotide 3.27 μmol/L 30 min
human intestine = tested on: human intestine; design: method as in Kuhn et al. 1994; details: segments of human intestine including ascending colon; ref Kuhn et al. 1994; cited from earlier work
cGKII = cGKII knockdown in C2BBe cells, Western blot; format: cell-based, human; details: lentiviral cGKII shRNA
[6] = tested on: PKGII-deficient mice intestinal tissue; design: method as in Vaandrager et al. 2000; details: normal and PKGII knockout mice; ref Vaandrager et al. 2000; cited from earlier work
[7] = H8 70 μmol/L pretreatment 30 min
[8] = H7 50 μmol/L pretreatment 30 min

## CCCC(=O)Nc1ncnc2c1ncn2[C@@H]1O[C@@H]2COP(=O)(O)O[C@H]2[C@H]1OC(=O)CCC [Dibutyryl cAMP]
CFTR [1]
  surface CFTR in cGKII‐KD cells after cAMP analog: increased apical surface CFTR
CFTR [1]; listed as dibuturyl cAMP
  surface CFTR in cGKII‐KD cells after cAMP analog: able to recruit CFTR to the membrane

## uroguanylin (NDDCELCVNVACTGCL; ends and bridges not checked; cysteine pairing not given here; UniProt Q16661 97-112, looked up) [natural hormone, GC‐C agonist]
T84 cells
  cGMP production via GC‐C activation: increase production of cGMP
Mouse colonic mucosa
  cGMP efflux: induce cGMP efflux
Rat colonic mucosa
  cGMP efflux: induce cGMP efflux
Caco‐2 cell line
  cGMP efflux: induce cGMP efflux

## CCCCNc1cc(C(=O)O)cc(S(N)(=O)=O)c1Oc1ccccc1 [bumetanide]
Human colonic mucosa
  effect of NKCC1 inhibitor on linaclotide‐evoked Isc: significantly attenuated linaclotide‐evoked Isc; also recorded: inhibits GC‐C mediated short circuit current across human colonic mucosa

## CNCCNS(=O)(=O)c1cccc2cnccc12.Cl.Cl [H8]
[2]
  inhibition of GC‐C‐mediated transepithelial ion current by PKGII antagonists: significant but incomplete inhibition
[3]; rat proximal colon, H8 100 μmol/L 30 min preincubation, NKH477 20 μmol/L basolateral, mean ± SEM (n = 5)
  effect of PKGII inhibitor on NKH477‐evoked Isc: no effect on NKH477‐evoked Isc; also recorded: no effect on PKA‐mediated short circuit current induced by NKH477
[3]; rat proximal colon, H8 100 μmol/L 30 min preincubation, linaclotide 100 nmol/L apical, mean ± SEM (n = 5)
  effect of PKGII inhibitor on linaclotide‐induced Isc: significantly decreased linaclotide‐induced Isc compared to vehicle‐treated tissues; also recorded: significant, it was not complete
CFTR [4]; [7]
  effect of PKG inhibitor on linaclotide‐induced apical CFTR traffic: reduced linaclotide‐induced apical CFTR traffic more potently compared to the PKA inhibitor H7; also recorded: reduce linaclotide‐induced apical trafficking of CFTR
CFTR [5]; [7]
  effect of PKG inhibitor on linaclotide‐induced apical CFTR traffic: reduced linaclotide‐induced apical CFTR traffic more potently compared to the PKA inhibitor H7; also recorded: reduce linaclotide‐induced apical trafficking of CFTR

## guanylin (PGTCEICAYAACTGC; ends and bridges not checked; cysteine pairing not given here; UniProt Q02747 101-115, looked up) [natural hormone, GC‐C agonist]
T84 cells
  cGMP production via GC‐C activation: increase production of cGMP
Human intestine
  electrogenic Cl− secretion: increase electrogenic Cl^− secretion

## C=C[C@@]1(C)CC(=O)[C@]2(O)[C@@]3(C)[C@@H](O)CCC(C)(C)[C@@H]3[C@H](OC(=O)CCN(C)C)[C@H](OC(C)=O)[C@@]2(C)O1.Cl [NKH477]
[3]; rat proximal colon, NKH477 20 μmol/L basolateral, mean ± SEM (n = 5)
  NKH477-induced transepithelial ion current: robust transepithelial ion current

## Nc1nc2c(nc(Sc3ccc(Cl)cc3)n2[C@@H]2O[C@@H]3CO[P@@](=O)(S)O[C@H]3[C@H]2O)c(=O)[nH]1 [Rp‐8‐pCPT‐cGMPS]
[2]
  inhibition of GC‐C‐mediated transepithelial ion current by PKGII antagonists: significant but incomplete inhibition

## O=C(CNc1ccc2ccccc2c1)N/N=C/c1cc(Br)c(O)c(Br)c1O [GlyH‐101]
[3]; GlyH‐101 0.1 mmol/L apical, 20 min after linaclotide 6 nmol/L or 100 nmol/L, mean ± SEM (n = 4)
  inhibition of linaclotide‐evoked Isc by CFTR inhibitor: significantly attenuated the linaclotide‐evoked Isc
[3]; GlyH‐101 0.1 mmol/L, linaclotide 6 nmol/L
  inhibition of linaclotide‐evoked Isc by CFTR inhibitor, low linaclotide: more profound when tissues were stimulated with lower concentrations of linaclotide; also recorded: significantly inhibited Isc induced by low concentration of linaclotide
[3]; GlyH‐101 0.1 mmol/L, linaclotide 100 nmol/L
  inhibition of linaclotide‐evoked Isc by CFTR inhibitor, high linaclotide: less profound

## cGKII shRNA: cGKII‐targeting shRNA (5′‐GGGCCTTAATAACCATTTAGT‐3′), lentiviral pLKO.1 (expressed from pLKO.1 lentiviral vector)
cGKII
  downregulation of cGKII: approximately 50 ± 3%

## Nc1cc(-c2ccncc2)c[nH]c1=O [amrinone]
[6]
  transepithelial ion current by PDE3 inhibitor: induced transepithelial ion current in tissues from normal and PKGII knockout mice

## CC1CNCCN1S(=O)(=O)c1cccc2cnccc12 (centres unmarked) [H7]
CFTR [4]; [8]
  effect of PKA inhibitor on linaclotide‐induced apical CFTR traffic: reduced but did not abrogate linaclotide‐induced apical CFTR traffic; also recorded: reduce linaclotide‐induced apical trafficking of CFTR; also recorded: partially abrogated linaclotide‐stimulated traffic
CFTR [5]; [8]
  effect of PKA inhibitor on linaclotide‐induced apical CFTR traffic: reduced but did not abrogate linaclotide‐induced apical CFTR traffic; also recorded: reduce linaclotide‐induced apical trafficking of CFTR; also recorded: partially abrogated linaclotide‐stimulated traffic
